Assay results from the supplement of paper PMC10307832.

What was measured:
Test in all cases: relative viability (nuclei count vs DMSO), 5 days (fraction); higher = more cells survive
[1] = compound: CCN1C(=O)C2=CC(=C(N=C2N(C1=O)C3CC3)N)C(=O)N + N=C(N)NC(=N)NCCc1ccccc1 [Phenformin] (partner 250 µM)
Outline: (§1)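 Relative viability is defined as nuclei in treated wells over nuclei in vehicle wells. Duplicate plates were run and medians reported. Lung cancer cell lines in 1536-well plates were dosed by pin tool one day after seeding, with one drug or with a fixed anchor-drug dose plus five library-drug doses (not always all listed) in √10 steps, and nuclei were counted after 5 days.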

[2] = compound: CCN1C(=O)C2=CC(=C(N=C2N(C1=O)C3CC3)N)C(=O)N + CCNC(=O)c1noc(-c2cc(C(C)C)c(O)cc2O)c1-c1ccc(CN2CCOCC2)cc1 [Luminespib] (partner 0.01 µM)
Outline: as §1

[3] = compound: CCN1C(=O)C2=CC(=C(N=C2N(C1=O)C3CC3)N)C(=O)N + C[C@]1(O)C[C@@H](c2nc(-c3ccc4ccc(-c5ccccc5)nc4c3)c3c(N)nccn32)C1 [Linsitinib] (partner 1 µM)
Outline: as §1

[4] = compound: CCN1C(=O)C2=CC(=C(N=C2N(C1=O)C3CC3)N)C(=O)N + CS(=O)(=O)N1CCN(Cc2cc3nc(-c4cccc5[nH]ncc45)nc(N4CCOCC4)c3s2)CC1 [Pictilisib] (partner 1 µM)
Outline: as §1

[5] = compound: CCN1C(=O)C2=CC(=C(N=C2N(C1=O)C3CC3)N)C(=O)N + C[C@@H](Oc1cc(-c2cnn(C3CCNCC3)c2)cnc1N)c1c(Cl)ccc(F)c1Cl [Crizotinib] (partner 1 µM)
Outline: as §1

Cell Line	relative viability ([1]; first compound 0.253 µM)	relative viability ([1]; first compound 0.8 µM)	relative viability ([1]; first compound 2.53 µM)	relative viability ([1]; first compound 8 µM)	relative viability ([2]; first compound 0.253 µM)	relative viability ([2]; first compound 0.8 µM)	relative viability ([2]; first compound 2.53 µM)	relative viability ([2]; first compound 8 µM)	relative viability ([3]; first compound 0.253 µM)	relative viability ([3]; first compound 0.8 µM)	relative viability ([3]; first compound 2.53 µM)	relative viability ([3]; first compound 8 µM)	relative viability ([4]; first compound 0.253 µM)	relative viability ([4]; first compound 0.8 µM)	relative viability ([4]; first compound 2.53 µM)	relative viability ([4]; first compound 8 µM)	relative viability ([5]; first compound 0.253 µM)	relative viability ([5]; first compound 0.8 µM)	relative viability ([5]; first compound 2.53 µM)	relative viability ([5]; first compound 8 µM)
ABC-1	0.24	0.22	0.274	0.25	0.869	0.4	0.639	0.518	0.825	0.989	0.72	0.876	0.761	0.667	0.82	0.699	1.21	1.04	1.18	1.32
COR-L 105	0.452	0.391	0.498	0.379	0.807	0.737	0.623	0.641	1.12	1.04	0.945	0.939	0.453	0.366	0.412	0.369	0.915	0.726	0.732	0.995
LOU-NH91	0.466	0.645	0.822	0.694	0.283	0.452	0.379	0.349	1.04	0.951	0.96	0.879	0.509	0.516	0.541	0.538	0.705	0.718	0.767	0.707
NCI-H727	0.625	0.455	0.459	0.666	0.238	0.309	0.394	0.321	0.297	0.354	0.282	0.272	0.441	0.375	0.428	0.508	0.899	0.797	0.843	0.882
LU99A	0.778	0.915	0.77	0.72	0.249	0.259	0.285	0.234	0.594	0.578	0.51	0.626	0.305	0.332	0.303	0.363	0.587	0.57	0.476	0.591
NCI-H596	0.707	0.72	0.769	0.628	1.01	0.884	0.941	1.14	0.991	1.11	0.926	1.18	0.449	0.36	0.454	0.403	1.05	0.984	1.08	0.948
HOP-62	0.678	0.696	0.633	0.77	1.03	0.899	0.926	0.945	0.989	1.09	0.825	1.05	1.01	0.883	0.413	0.804	0.891	0.966	0.983	0.867
SK-LU-1	0.538	0.587	0.614	0.561	0.177	0.201	0.194	0.215	1.02	1.14	1.23	1.06	0.559	0.581	0.717	0.614	1.11	0.749	0.805	0.931
LCLC-103H	0.341	0.305	0.291	0.364	0.916	0.956	0.958	1.12	1.13	1.03	1.07	1.01	0.57	0.581	0.501	0.582	1.02	1.07	1.02	1.02
NCI-H1734	0.381	0.365	0.384	0.361	0.67	0.215	0.191	0.233	0.837	0.849	0.852	0.884	0.456	0.495	0.44	0.473	0.716	0.635	0.618	0.769
EKVX	0.256	0.248	0.316	0.231	0.94	0.952	0.772	0.722	1.03	1.03	0.934	0.998	0.439	0.411	0.388	0.438	1.07	1.14	0.837	1.05
HARA	0.433	0.478	0.414	0.401	0.706	0.671	0.843	0.929	0.971	0.942	0.829	0.94	0.403	0.36	0.379	0.486	1.1	1.04	0.946	1.16
EMC-BAC-2	0.597	0.478	0.478	0.56	1.29	1.08	1.03	1.19	0.848	0.837	0.754	0.888	0.642	0.536	0.456	0.584	0.841	0.734	0.713	0.855
PC-3 [JPC-3]	0.468	0.498	0.508	0.448	0.661	0.709	0.663	0.823	0.982	0.933	0.92	0.919	0.729	0.696	0.69	0.737	1.04	0.953	0.914	0.94
NCI-H520	0.582	0.643	0.59	0.508	0.236	0.201	0.246	0.3	0.938	0.951	0.961	1.11	0.273	0.302	0.317	0.27	0.698	0.64	0.645	1.29
NCI-H1755	0.647	0.607	0.381	0.665	0.455	0.412	0.528	0.51	1.02	0.997	1.01	0.942	0.431	0.405	0.452	0.488	0.895	0.865	0.875	0.918

Cell Line	relative viability ([1]; first compound 0.253 µM)	relative viability ([1]; first compound 0.8 µM)	relative viability ([1]; first compound 2.53 µM)	relative viability ([1]; first compound 8 µM)	relative viability ([2]; first compound 0.253 µM)	relative viability ([2]; first compound 0.8 µM)	relative viability ([2]; first compound 2.53 µM)	relative viability ([2]; first compound 8 µM)	relative viability ([3]; first compound 0.253 µM)	relative viability ([3]; first compound 0.8 µM)	relative viability ([3]; first compound 2.53 µM)	relative viability ([3]; first compound 8 µM)	relative viability ([4]; first compound 0.253 µM)	relative viability ([4]; first compound 0.8 µM)	relative viability ([4]; first compound 2.53 µM)	relative viability ([4]; first compound 8 µM)	relative viability ([5]; first compound 0.253 µM)	relative viability ([5]; first compound 0.8 µM)	relative viability ([5]; first compound 2.53 µM)	relative viability ([5]; first compound 8 µM)
NCI-H2087	0.439	0.466	0.443	0.398	0.229	0.193	0.132	0.189	1.02	0.963	0.971	1.04	0.785	0.788	0.878	0.857	0.809	0.937	0.627	0.872
NCI-H2023	0.411	0.42	0.357	0.388	0.857	0.726	0.781	0.792	0.68	0.621	0.548	0.652	0.229	0.218	0.23	0.26	0.639	0.622	0.585	0.606
CAL-12T	0.565	0.61	0.49	0.547	0.294	0.792	0.193	0.436	0.792	0.773	0.721	0.776	0.431		0.437	0.541	0.549	0.595	0.702	0.783
NCI-H2085	0.737	0.666	0.752	0.684	0.378	0.408	0.355	0.493	0.969	0.754	0.799	0.863	0.418	0.397	0.444	0.42	0.861	0.985	0.84	1.01
NCI-H661	0.287	0.302	0.267	0.278	0.922	0.904	0.898	0.904	0.568	0.636	0.558	0.603	0.401	0.368	0.45	0.395	1.05	1.05	0.987	1.06
LCLC-97TM1	0.383	0.452	0.375	0.407	0.678	0.845	0.766	0.799	0.196			0.218	0.203			0.223	0.366			0.316
NCI-H2126	0.553	0.512	0.522	0.506	0.877	0.911	0.993	0.779	0.741	0.745	0.656	0.718	0.509	0.511	0.507	0.474	1.03	1.02	1.01	0.977
201T	0.478	0.474	0.442	0.47	1.06	1.04	1.02	1.08	1	0.991	0.952	1.01	0.688	0.621	0.722	0.635	1.08	0.97	0.98	1.03
NCI-H1915	0.367	0.362	0.376	0.36	0.852	0.775	0.873	0.892	1.09	1.1	1.08	1.06	0.953	0.843	0.953	0.904	0.895	0.921	0.851	0.911
BEN	0.251	0.273	0.264	0.284	0.469	0.427	0.377	0.351	0.961	0.92	0.919	0.954	0.539	0.522	0.62	0.519	0.713	0.865	0.903	1.07
NCI-H2347	0.373	0.424	0.547	0.418	1.03	0.469	0.774	0.341	1.04	1.03	0.925	0.845	0.475	0.711	0.566	0.782	0.862	0.841	0.712	0.719
H3255	0.427	0.306	0.315	0.359	0.834	0.773	0.883	0.932	0.879	0.908	0.835	1.03	0.509	0.47	0.504	0.513	0.805	0.936	0.885	0.965
NCI-H441	0.762	0.85	0.78	0.833	0.287	0.34	0.419	0.35	0.49	0.545	0.697	0.53	0.561	0.48	0.462	0.576	0.706	0.654	0.773	0.781
NCI-H2228	0.405	0.372	0.331	0.395	0.132	0.167	0.203	0.11	0.984	0.943	0.606	0.969	0.393	0.368	0.353	0.4	0.452	0.535	0.433	0.507
NCI-H1975	0.416	0.417	0.406	0.375	0.167	0.283	0.222	0.276	0.981	0.955	0.882	1.04	0.276	0.293	0.306	0.306	0.948	0.94	0.97	0.949
NCI-H650	0.502	0.388	0.448	0.433	0.66	0.821	0.712	0.78	0.949	0.636	0.957	0.697	0.997	0.922	0.684	0.893	0.832	0.721	0.615	0.716
